Test results taken from ChEMBL document CHEMBL1201862, “PubChem BioAssay data set” (2004).
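Compound exposure: 48 hours, 5 concentrations, 96-well plates. GI50: concentration for 50% inhibition of growth.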 The source made the active and inactive calls. No stated cut-off is given here; in the data, active = GI50 up to about 1.1 µM and inactive = higher.

What was measured:
Experiment in all cases: growth of human tumour cells (NCI), 48 h
[1] = tested on: DMS-273
[2] = tested on: HOP-18
[3] = tested on: KM-20L2
[4] = tested on: LXFL 529
[5] = tested on: M19-MEL
[6] = tested on: SNB-78
[7] = tested on: XF498
[8] = tested on: DMS-114
[9] = tested on: RXF 631

`N/C(S)=N/N=C/c1ncccc1O` was tested, and the GI50 [1] was 0.508 µM (active), the GI50 [2] was 2.25 µM (inactive) and the GI50 [3] was 1.39 µM (inactive). For the same molecule, the GI50 [4] was 2.75 µM (inactive), the GI50 [5] was 1.91 µM (inactive) and the GI50 [6] was 81.8 µM (inactive). For the same molecule, the GI50 [7] was 1.51 µM (inactive).

For `O=C1C(Br)=C(c2ccccc2)C(c2ccccc2)=C1c1ccccc1`, the GI50 [8] was 1.89 µM (inactive), the GI50 [1] was 1.79 µM (inactive) and the GI50 [2] was 4.9 µM (inactive). The GI50 [3] was 4.78 µM (inactive), the GI50 [4] was 1.5 µM (inactive) and the GI50 [5] was 2.17 µM (inactive). The GI50 [9] was 6.49 µM (inactive), the GI50 [6] was 2.12 µM (inactive) and the GI50 [7] was 1.81 µM (inactive).

With `O=C(CC(=O)Nc1ccccc1O)Nc1ccccc1O` the GI50 [8] was 1.75 µM (inactive), the GI50 [1] was 25.9 µM (inactive) and the GI50 [2] was 19.4 µM (inactive). The GI50 [3] was 22.9 µM (inactive), the GI50 [4] was 8.91 µM (inactive) and the GI50 [5] was 15 µM (inactive). The GI50 [9] was 9.79 µM (inactive) and the GI50 [6] was > 100 µM (inactive).

In the case of `O=[N+]([O-])c1ccccc1C1N2CCCCC2[C@@H]2c3[nH]c4ccccc4c3CCN12` (some centres not stated), the GI50 [8] is reported as 4.34 µM (inactive), the GI50 [1] is reported as 10.9 µM (inactive) and the GI50 [2] is reported as 36.5 µM (inactive). For the same molecule, the GI50 [3] was 12.4 µM (inactive), the GI50 [4] was 10.8 µM (inactive) and the GI50 [5] was 6.25 µM (inactive). For the same molecule, the GI50 [9] was 13.2 µM (inactive), the GI50 [6] was 15.3 µM (inactive) and the GI50 [7] was 16.9 µM (inactive).

For `CC(=O)c1ccc(NC(=O)/C(Cc2ccccn2)=N/NC(=O)C[N+](C)(C)C)cc1`, the GI50 [8] was > 100 µM (inactive), the GI50 [1] was > 100 µM (inactive) and the GI50 [2] was > 100 µM (inactive). The GI50 [3] was > 100 µM (inactive), the GI50 [4] was > 100 µM (inactive) and the GI50 [5] was > 100 µM (inactive). For the same molecule, the GI50 [9] was > 100 µM (inactive) and the GI50 [6] was > 100 µM (inactive).

In the case of `O=C(Cc1nc2ccccc2s1)Nc1cccc(C(F)(F)F)c1`, the GI50 [8] is reported as 15.6 µM (inactive), the GI50 [1] is reported as 18.7 µM (inactive) and the GI50 [2] is reported as 18.5 µM (inactive). For the same molecule, the GI50 [3] was 20.4 µM (inactive), the GI50 [4] was 13.4 µM (inactive) and the GI50 [5] was 13 µM (inactive). For the same molecule, the GI50 [9] was 13.8 µM (inactive) and the GI50 [7] was 14.8 µM (inactive).

`FC(F)(F)P1C2C=CC(CC2)C1(F)F` (configuration not stated) was tested, and the GI50 [8] was > 100 µM (inactive), the GI50 [1] was > 100 µM (inactive) and the GI50 [2] was > 100 µM (inactive). For the same molecule, the GI50 [3] was > 100 µM (inactive), the GI50 [4] was > 100 µM (inactive) and the GI50 [5] was > 100 µM (inactive). The GI50 [6] was > 100 µM (inactive) and the GI50 [7] was > 100 µM (inactive).

In the case of `CCCCOCN/C(N)=N/C#N`, the GI50 [8] is reported as > 100 µM (inactive), the GI50 [1] is reported as 68.7 µM (inactive) and the GI50 [2] is reported as > 100 µM (inactive). For the same molecule, the GI50 [3] was > 100 µM (inactive), the GI50 [4] was > 100 µM (inactive) and the GI50 [9] was > 100 µM (inactive). The GI50 [6] was > 100 µM (inactive) and the GI50 [7] was > 100 µM (inactive).

For `NC(=O)C#CC#CC#CCO`, the GI50 [8] was 2.05 µM (inactive), the GI50 [1] was 1.98 µM (inactive) and the GI50 [2] was 1.82 µM (inactive). The GI50 [3] was 3.89 µM (inactive), the GI50 [4] was 1.14 µM (inactive) and the GI50 [5] was 1.81 µM (inactive). The GI50 [6] was 2.86 µM (inactive).

With `COC(=O)CCC(=O)C(C#N)c1ccc(Cl)cc1Cl` (configuration not stated) the GI50 [1] was > 100 µM (inactive), the GI50 [3] was > 100 µM (inactive) and the GI50 [4] was > 100 µM (inactive). For the same molecule, the GI50 [5] was > 100 µM (inactive), the GI50 [9] was > 100 µM (inactive) and the GI50 [6] was > 100 µM (inactive). The GI50 [7] was > 100 µM (inactive).

`CCOC(=O)NC(=O)c1cn(CCCOC(=O)CCCCCCCCCCC(=O)OCCCn2cc(C(=O)NC(=O)OCC)c(=O)[nH]c2=O)c(=O)[nH]c1=O` was tested, and the GI50 [2] was > 100 µM (inactive), the GI50 [3] was > 100 µM (inactive) and the GI50 [4] was > 100 µM (inactive). For the same molecule, the GI50 [5] was > 100 µM (inactive), the GI50 [9] was 37.3 µM (inactive) and the GI50 [6] was > 100 µM (inactive). For the same molecule, the GI50 [7] was > 100 µM (inactive).

In the case of `CC(C)OP(=O)(OC(C)C)/C(N)=N/Nc1ccc([N+](=O)[O-])cc1`, the GI50 [8] is reported as 57.8 µM (inactive), the GI50 [1] is reported as > 100 µM (inactive) and the GI50 [3] is reported as > 100 µM (inactive). The GI50 [4] was 66.2 µM (inactive), the GI50 [5] was > 100 µM (inactive) and the GI50 [6] was 50.7 µM (inactive). For the same molecule, the GI50 [7] was 23.5 µM (inactive).

With `CCc1cccc(C(C)C)c1NC(=O)/C(=N\NC(N)=O)C(C(=O)OC)c1cnc2ccccc2n1` (configuration not stated) the GI50 [8] was 24.9 µM (inactive), the GI50 [1] was 31.6 µM (inactive) and the GI50 [2] was 19.1 µM (inactive). For the same molecule, the GI50 [3] was 41.6 µM (inactive), the GI50 [4] was 52.4 µM (inactive) and the GI50 [5] was 15.9 µM (inactive). For the same molecule, the GI50 [9] was 55.2 µM (inactive), the GI50 [6] was > 100 µM (inactive) and the GI50 [7] was > 100 µM (inactive).
